From patent publication US4092412A, “Treatment of herpes simplex infections” (Abbott Laboratories, priority 1977, dated 1978)

Key:
[1] = system: herpes simplex virus (HSV) type 1 or type 2; test: Antiviral activity by plaque reduction method; assay type: cell-based, herpes simplex virus (in rabbit kidney cells); set-up: key: 0 = inactive; +2 = moderate activity; +4 = very active; settings: rabbit kidney cells, plaques counted 3 to 4 days after infection
Experimental: Determination of Antiviral Activity by Plaque Reduction Method
The inhibitory effect of new compounds upon herpes simplex virus (HSV) type 1 or type 2 was analyzed by the plaque reduction assay. Confluent monolayers of rabbit kidney cells grown in 60 mm plastic petri dishes were infected with HSV by adsorption for 1 hour at room temperature. The appropriate concentration of the test compound was added at the time of initial virus infection. Following virus adsorption the cells were overlayed with Eagle's medium (BME) supplemented with 10% fetal bovine serum, 0.225% NaHCO3 and 0.5% methycellulose. The appropriate concentration of the test compound was also added to this overlay. Infected cultures were then incubated at 37° C. for the remainder of the test. Three to four days following virus infection, each culture was stained with crystal violet and the herpes virus induced plaques counted.

[2] = system: herpes simplex infections; test: Topical test against herpes simplex infections in CF mice; assay type: in vivo; settings: 10 mice per group, topical 2% aqueous solution, 11 applications, 14 day test
Experimental: The following test was applied to determine the effectiveness of the carboxylic esters of phosphonoacetic acid against herpes simplex infections in mice. The compounds tested included the compounds shown above as II and III. Also included were a standard virus control as well as a normal (no virus) control.
Herpes virus (10^7 TCID50 /ml) was applied topically (0.05 ml) to the denuded skin and impregnated into the dermis with a 24-gauge sterile hypodermic needle. In untreated animals, herpes lesions or vesicles usually develop in 3 to 5 days. The lesions form bands which extend over the denuded area. After approximately 10 days, mice usually develop a paralysis which results in their death. The test was allowed to continue for a total of 14 days.
Some of the animals were treated topically by having the drug applied to the site of infection as a 2% aqueous solution 2 hours after the virus was introduced into the skin, and twice daily for 5 consecutive days. The drug was applied a total of 11 times. A single application of a 2% drug solution delivered approximately 2 mg of material.
The Mann-Whitney "U" Test was used to statistically analyze the herpes infection in mice by making paired comparisons between the treated and untreated virus control groups. […]

[3] = target: T1, Herpes simplex type 2 deoxyribonucleic acid (DNA) polymerase (Human herpesvirus 2, UniProt P89453); test: Viral DNA polymerase assay; assay type: biochemical, herpes simplex virus type 2; settings: 50% inhibition of herpes simplex type 2 DNA polymerase; read-out: Concentration (μg/ml) giving 50% Percent Inhibition (converted)
T1 construct: made in house; host or cells: Herpes virus infected Wi-38 cells (native viral enzyme, not recombinant; DEAE-cellulose and phosphocellulose chromatography)
T1 sequence (P89453 1-1240): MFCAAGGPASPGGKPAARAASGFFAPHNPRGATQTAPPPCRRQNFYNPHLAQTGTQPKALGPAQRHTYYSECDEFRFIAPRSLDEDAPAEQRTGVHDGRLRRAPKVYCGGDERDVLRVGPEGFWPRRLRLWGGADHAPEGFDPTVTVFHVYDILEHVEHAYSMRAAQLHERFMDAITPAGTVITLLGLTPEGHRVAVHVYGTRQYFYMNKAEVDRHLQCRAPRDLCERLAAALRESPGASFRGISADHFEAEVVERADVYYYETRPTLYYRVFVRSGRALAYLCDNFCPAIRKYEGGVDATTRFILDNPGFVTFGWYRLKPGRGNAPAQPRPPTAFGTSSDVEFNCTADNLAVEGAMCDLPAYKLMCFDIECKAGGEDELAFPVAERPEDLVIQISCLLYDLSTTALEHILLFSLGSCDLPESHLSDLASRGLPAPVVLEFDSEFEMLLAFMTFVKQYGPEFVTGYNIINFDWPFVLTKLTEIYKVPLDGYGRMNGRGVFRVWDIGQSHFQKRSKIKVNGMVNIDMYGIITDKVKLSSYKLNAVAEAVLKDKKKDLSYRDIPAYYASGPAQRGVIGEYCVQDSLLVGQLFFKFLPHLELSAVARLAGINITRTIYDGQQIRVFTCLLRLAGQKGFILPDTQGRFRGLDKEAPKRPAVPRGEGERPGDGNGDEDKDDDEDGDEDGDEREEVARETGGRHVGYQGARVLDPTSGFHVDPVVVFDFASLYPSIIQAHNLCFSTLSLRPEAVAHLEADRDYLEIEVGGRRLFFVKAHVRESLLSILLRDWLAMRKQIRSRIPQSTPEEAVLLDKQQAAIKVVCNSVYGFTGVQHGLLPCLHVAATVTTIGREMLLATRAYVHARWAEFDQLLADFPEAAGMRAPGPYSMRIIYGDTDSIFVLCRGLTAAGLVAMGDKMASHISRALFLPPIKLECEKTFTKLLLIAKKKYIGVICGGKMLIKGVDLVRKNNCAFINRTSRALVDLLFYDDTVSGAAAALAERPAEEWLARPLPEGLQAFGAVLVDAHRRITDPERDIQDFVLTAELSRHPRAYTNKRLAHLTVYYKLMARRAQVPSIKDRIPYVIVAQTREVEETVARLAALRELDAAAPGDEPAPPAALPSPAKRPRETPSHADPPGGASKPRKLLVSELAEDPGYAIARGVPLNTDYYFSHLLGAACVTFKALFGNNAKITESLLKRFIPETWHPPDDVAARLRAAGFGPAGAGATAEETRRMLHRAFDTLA
Experimental: Isolation and Purification of Herpes Simplex Type 2 Deoxyribonucleic Acid (DNA) Polymerase
The DNA polymerase was isolated according to the procedure of Smith and Gallo (1972) which involved column chromatography on DEAE-cellulose and phosphocellulose. However, buffer containing 20% glyceryl instead of 10% was used. The final enzyme preparation has a specific activity of 313 unit/mg. for herpes simplex virus type 2.
Viral Deoxyribonucleic Acid (DNA) Polymerase Assay
The reaction mixture (0.2 ml.) contains 10 μM of 2'-deoxyadenosine-5'-triphosphate, 2'-deoxycytidine-5'-triphosphate, 2'-deoxyguanosine-5'-triphosphate, and 2.5 μM tritium labeled thymidine-5'-triphosphate which was appropriately diluted with unlabeled dTTP to give 880 counts per minute per pico-mole, 10 μg of activated calf thymus DNA 50 mM Tris-HCl buffer (pH 8.0), 3mM MgCl2, 100 mM KCl and 1 mM dithiothritol. The amounts of enzyme used in each reaction was chosen to give a linear rate for at least 30 minutes at 37° C. The reaction was terminated by the addition of 3 ml. of cold 5% trichloroacetic acid - 0.01 M sodium pyrophosphate. The acid-insoluble material was collected, washed twice on glass filter discs (Reeve Angel 984-H) and the incorporated ^3 H-dTMP was determined by a liquid scintillation counter.

Structure (SMILES) | Inhibition of plaques [1] | No. of Mice Dead [2] | No. of Mice Paralyzed [2] | IC50 [3]
CCOC(=O)CP(=O)(O)O [Compound II, Ethyl Phosphonoacetate] | +4 | 3 | 2 | 23.2 µM
COC(=O)CP(=O)(O)O [Compound III, Methyl Phosphonoacetate] | +2 | 5 | 2 | 45.4 µM
